Test results from ChEMBL document CHEMBL3400015, “Tertiary amides of Salinomycin: A new group of antibacterial agents against Bacillus anthracis and methicillin-resistant Staphylococcus epidermidis” (Bioorg Med Chem Lett, 2015).
In brackets after ≈: the same amount, converted by molar mass.

What was measured:
[1] = test system: Staphylococcus epidermidis; experiment: Antimicrobial activity against methicillin-resistant Staphylococcus epidermidis isolate 454/11 after 18 hrs by twofold serial broth dilution method; format: functional; settings: isolate 454/11, 18 h
Escherichia coli [2] = experiment: Bactericidal activity against Escherichia coli NCTC 8196 after 24 hrs; format: functional; settings: NCTC 8196, 24 h, read-out: MBC99.9
[3] = test system: Staphylococcus epidermidis; experiment: Bactericidal activity against methicillin-resistant Staphylococcus epidermidis isolate 457/11 after 24 hrs; format: functional; settings: isolate 457/11, 24 h, read-out: MBC99.9
[4] = test system: Staphylococcus epidermidis; experiment: Bactericidal activity against methicillin-resistant Staphylococcus epidermidis isolate 454/11 after 24 hrs; format: functional; settings: isolate 454/11, 24 h, read-out: MBC99.9
Pseudomonas aeruginosa [5] = experiment: Antimicrobial activity against Pseudomonas aeruginosa ATCC 27853 after 18 hrs by twofold serial broth dilution method; format: functional; settings: ATCC 27853, 18 h
[6] = test system: Staphylococcus epidermidis; experiment: Antimicrobial activity against Staphylococcus epidermidis ATCC 12228 after 18 hrs by twofold serial broth dilution method; format: functional; settings: ATCC 12228, 18 h
Bacillus anthracis = experiment: Antimicrobial activity against Bacillus anthracis 34F2 after 18 hrs by twofold serial broth dilution method; format: functional; settings: 34F2, 18 h
Staphylococcus aureus [7] = experiment: Bactericidal activity against Staphylococcus aureus NCTC 4163 after 24 hrs; format: functional; settings: NCTC 4163, 24 h, read-out: MBC99.9
Staphylococcus aureus [8] = experiment: Bactericidal activity against Staphylococcus aureus ATCC 6538 after 24 hrs; format: functional; settings: ATCC 6538, 24 h, read-out: MBC99.9
Escherichia coli [9] = experiment: Bactericidal activity against Escherichia coli ATCC 10538 after 24 hrs; format: functional; settings: ATCC 10538, 24 h, read-out: MBC99.9
[10] = test system: Staphylococcus epidermidis; experiment: Antimicrobial activity against methicillin-resistant Staphylococcus epidermidis isolate 422/10 after 18 hrs by twofold serial broth dilution method; format: functional; settings: isolate 422/10, 18 h
Pseudomonas aeruginosa [11] = experiment: Bactericidal activity against Pseudomonas aeruginosa NCTC 6749 after 24 hrs; format: functional; settings: NCTC 6749, 24 h, read-out: MBC99.9
[12] = test system: Staphylococcus epidermidis; experiment: Bactericidal activity against methicillin-resistant Staphylococcus epidermidis isolate 460/11 after 24 hrs; format: functional; settings: isolate 460/11, 24 h, read-out: MBC99.9
Staphylococcus aureus [13] = experiment: Antimicrobial activity against Staphylococcus aureus ATCC 25923 after 18 hrs by twofold serial broth dilution method; format: functional; settings: ATCC 25923, 18 h
Pseudomonas aeruginosa [14] = experiment: Bactericidal activity against Pseudomonas aeruginosa ATCC 15442 after 24 hrs; format: functional; settings: ATCC 15442, 24 h, read-out: MBC99.9
Bacillus subtilis [15] = experiment: Genotoxicity in rec-negative Bacillus subtilis M45 at 2 ug/9 mm disc after 24 hrs by disc diffusion method; format: toxicity, organism-based
[16] = test system: Staphylococcus epidermidis; experiment: Bactericidal activity against methicillin-resistant Staphylococcus epidermidis isolate 469/11 after 24 hrs; format: functional; settings: isolate 469/11, 24 h, read-out: MBC99.9
[17] = test system: Staphylococcus epidermidis; experiment: Bactericidal activity against methicillin-resistant Staphylococcus epidermidis isolate 424/10 after 24 hrs; format: functional; settings: isolate 424/10, 24 h, read-out: MBC99.9
Staphylococcus aureus [18] = experiment: Bactericidal activity against Staphylococcus aureus ATCC 25923 after 24 hrs; format: functional; settings: ATCC 25923, 24 h, read-out: MBC99.9
[19] = test system: Staphylococcus epidermidis; experiment: Bactericidal activity against Staphylococcus epidermidis ATCC 35984 after 24 hrs; format: functional; settings: ATCC 35984, 24 h, read-out: MBC99.9
[20] = test system: Staphylococcus epidermidis; experiment: Bactericidal activity against methicillin-resistant Staphylococcus epidermidis isolate 405/10 after 24 hrs; format: functional; settings: isolate 405/10, 24 h, read-out: MBC99.9
[21] = test system: Staphylococcus epidermidis; experiment: Antimicrobial activity against methicillin-resistant Staphylococcus epidermidis isolate 424/10 after 18 hrs by twofold serial broth dilution method; format: functional; settings: isolate 424/10, 18 h
[22] = test system: Staphylococcus epidermidis; experiment: Antimicrobial activity against methicillin-resistant Staphylococcus epidermidis isolate 459/11 after 18 hrs by twofold serial broth dilution method; format: functional; settings: isolate 459/11, 18 h
[23] = test system: Staphylococcus epidermidis; experiment: Antimicrobial activity against methicillin-resistant Staphylococcus epidermidis isolate 469/11 after 18 hrs by twofold serial broth dilution method; format: functional; settings: isolate 469/11, 18 h
Escherichia coli [24] = experiment: Antimicrobial activity against Escherichia coli NCTC 8196 after 18 hrs by twofold serial broth dilution method; format: functional; settings: NCTC 8196, 18 h
Pseudomonas aeruginosa [25] = experiment: Antimicrobial activity against Pseudomonas aeruginosa NCTC 6749 after 18 hrs by twofold serial broth dilution method; format: functional; settings: NCTC 6749, 18 h
[26] = test system: Staphylococcus epidermidis; experiment: Antimicrobial activity against methicillin-resistant Staphylococcus epidermidis isolate 409/10 after 18 hrs by twofold serial broth dilution method; format: functional; settings: isolate 409/10, 18 h
[27] = test system: Staphylococcus epidermidis; experiment: Bactericidal activity against methicillin-resistant Staphylococcus epidermidis isolate 461/11 after 24 hrs; format: functional; settings: isolate 461/11, 24 h, read-out: MBC99.9
Escherichia coli [28] = experiment: Antimicrobial activity against Escherichia coli ATCC 25922 after 18 hrs by twofold serial broth dilution method; format: functional; settings: ATCC 25922, 18 h
[29] = test system: Staphylococcus epidermidis; experiment: Bactericidal activity against methicillin-resistant Staphylococcus epidermidis isolate 409/10 after 24 hrs; format: functional; settings: isolate 409/10, 24 h, read-out: MBC99.9
[30] = test system: Staphylococcus epidermidis; experiment: Antimicrobial activity against methicillin-resistant Staphylococcus epidermidis isolate 458/11 after 18 hrs by twofold serial broth dilution method; format: functional; settings: isolate 458/11, 18 h
Staphylococcus aureus [31] = experiment: Antimicrobial activity against Staphylococcus aureus NCTC 4163 after 18 hrs by twofold serial broth dilution method; format: functional; settings: NCTC 4163, 18 h
[32] = test system: Staphylococcus epidermidis; experiment: Antimicrobial activity against methicillin-resistant Staphylococcus epidermidis isolate 461/11 after 18 hrs by twofold serial broth dilution method; format: functional; settings: isolate 461/11, 18 h
[33] = test system: Staphylococcus epidermidis; experiment: Bactericidal activity against methicillin-resistant Staphylococcus epidermidis isolate 470/11 after 24 hrs; format: functional; settings: isolate 470/11, 24 h, read-out: MBC99.9
[34] = test system: Staphylococcus epidermidis; experiment: Bactericidal activity against methicillin-resistant Staphylococcus epidermidis isolate 407/10 after 24 hrs; format: functional; settings: isolate 407/10, 24 h, read-out: MBC99.9
[35] = test system: Staphylococcus epidermidis; experiment: Antimicrobial activity against methicillin-resistant Staphylococcus epidermidis isolate 470/11 after 18 hrs by twofold serial broth dilution method; format: functional; settings: isolate 470/11, 18 h
Staphylococcus aureus [36] = experiment: Bactericidal activity against Staphylococcus aureus […] after 24 hrs; format: functional; settings: read-out: MBC99.9
[37] = test system: Staphylococcus epidermidis; experiment: Antimicrobial activity against methicillin-resistant Staphylococcus epidermidis isolate 407/10 after 18 hrs by twofold serial broth dilution method; format: functional; settings: isolate 407/10, 18 h
Bacillus subtilis [38] = experiment: Genotoxicity in rec-positive Bacillus subtilis H17 at 2 ug/9 mm disc after 24 hrs by disc diffusion method; format: toxicity, organism-based
[39] = test system: Staphylococcus epidermidis; experiment: Bactericidal activity against methicillin-resistant Staphylococcus epidermidis isolate 422/10 after 24 hrs; format: functional; settings: isolate 422/10, 24 h, read-out: MBC99.9
[40] = test system: Staphylococcus epidermidis; experiment: Antimicrobial activity against methicillin-resistant Staphylococcus epidermidis isolate 404/10 after 18 hrs by twofold serial broth dilution method; format: functional; settings: isolate 404/10, 18 h
Pseudomonas aeruginosa [41] = experiment: Bactericidal activity against Pseudomonas aeruginosa ATCC 27853 after 24 hrs; format: functional; settings: ATCC 27853, 24 h, read-out: MBC99.9
Staphylococcus aureus [42] = experiment: Antimicrobial activity against Staphylococcus aureus […] after 18 hrs by twofold serial broth dilution method; format: functional

## CCCCN(CCCC)C(=O)[C@H](CC)[C@H]1CC[C@H](C)[C@H]([C@@H](C)[C@H](O)[C@H](C)C(=O)[C@H](CC)[C@H]2O[C@]3(C=C[C@@H](O)[C@]4(CC[C@@](C)([C@H]5CC[C@](O)(CC)[C@H](C)O5)O4)O3)[C@H](C)C[C@@H]2C)O1
[1]
  MIC: 4 µg/mL (≈ 4.64 µM)
Escherichia coli [2]
  MBC: > 256 µg/mL
[3]
  MBC: 256 µg/mL (≈ 297 µM)
[4]
  MBC: 128 µg/mL (≈ 148 µM)
Pseudomonas aeruginosa [5]
  MIC: > 256 µg/mL
[6]
  MIC: 8 µg/mL (≈ 9.28 µM)
Bacillus anthracis
  MIC: 64 µg/mL (≈ 74.2 µM)
Staphylococcus aureus [7]
  MBC: > 256 µg/mL
Staphylococcus aureus [8]
  MBC: 256 µg/mL (≈ 297 µM)
Escherichia coli [9]
  MBC: > 256 µg/mL
[10]
  MIC: 8 µg/mL (≈ 9.28 µM)
Pseudomonas aeruginosa [11]
  MBC: > 256 µg/mL
[12]
  MBC: > 256 µg/mL
Staphylococcus aureus [13]
  MIC: 8 µg/mL (≈ 9.28 µM)
Pseudomonas aeruginosa [14]
  MBC: > 256 µg/mL
Bacillus subtilis [15]
  diameter of the inhibition zone (DIZ): 30 mm
[16]
  MBC: > 256 µg/mL
[17]
  MBC: 256 µg/mL (≈ 297 µM)
Staphylococcus aureus [18]
  MBC: 256 µg/mL (≈ 297 µM)
[19]
  MBC: > 256 µg/mL
[20]
  MBC: 128 µg/mL (≈ 148 µM)
[21]
  MIC: 8 µg/mL (≈ 9.28 µM)
[22]
  MIC: 4 µg/mL (≈ 4.64 µM)
[23]
  MIC: 8 µg/mL (≈ 9.28 µM)
Escherichia coli [24]
  MIC: > 256 µg/mL
Pseudomonas aeruginosa [25]
  MIC: > 256 µg/mL
[26]
  MIC: 16 µg/mL (≈ 18.6 µM)
[27]
  MBC: > 256 µg/mL
Escherichia coli [28]
  MIC: > 256 µg/mL
[29]
  MBC: > 256 µg/mL
[30]
  MIC: 4 µg/mL (≈ 4.64 µM)
Staphylococcus aureus [31]
  MIC: 8 µg/mL (≈ 9.28 µM)
[32]
  MIC: 8 µg/mL (≈ 9.28 µM)
[33]
  MBC: > 256 µg/mL
[34]
  MBC: 256 µg/mL (≈ 297 µM)
[35]
  MIC: 8 µg/mL (≈ 9.28 µM)
Staphylococcus aureus [36]
  MBC: > 256 µg/mL
[37]
  MIC: 8 µg/mL (≈ 9.28 µM)
Bacillus subtilis [38]
  diameter of the inhibition zone (DIZ): 29 mm
[39]
  MBC: 256 µg/mL (≈ 297 µM)
[40]
  MIC: 8 µg/mL (≈ 9.28 µM)
Pseudomonas aeruginosa [41]
  MBC: > 256 µg/mL
Staphylococcus aureus [42]
  MIC: 8 µg/mL (≈ 9.28 µM)
